# Biological target: T1, Human SGLT2 (hSGLT2) (Homo sapiens, UniProt P31639)
# T1 construct: expressed in transfected cells
# T1 sequence (P31639 1-672): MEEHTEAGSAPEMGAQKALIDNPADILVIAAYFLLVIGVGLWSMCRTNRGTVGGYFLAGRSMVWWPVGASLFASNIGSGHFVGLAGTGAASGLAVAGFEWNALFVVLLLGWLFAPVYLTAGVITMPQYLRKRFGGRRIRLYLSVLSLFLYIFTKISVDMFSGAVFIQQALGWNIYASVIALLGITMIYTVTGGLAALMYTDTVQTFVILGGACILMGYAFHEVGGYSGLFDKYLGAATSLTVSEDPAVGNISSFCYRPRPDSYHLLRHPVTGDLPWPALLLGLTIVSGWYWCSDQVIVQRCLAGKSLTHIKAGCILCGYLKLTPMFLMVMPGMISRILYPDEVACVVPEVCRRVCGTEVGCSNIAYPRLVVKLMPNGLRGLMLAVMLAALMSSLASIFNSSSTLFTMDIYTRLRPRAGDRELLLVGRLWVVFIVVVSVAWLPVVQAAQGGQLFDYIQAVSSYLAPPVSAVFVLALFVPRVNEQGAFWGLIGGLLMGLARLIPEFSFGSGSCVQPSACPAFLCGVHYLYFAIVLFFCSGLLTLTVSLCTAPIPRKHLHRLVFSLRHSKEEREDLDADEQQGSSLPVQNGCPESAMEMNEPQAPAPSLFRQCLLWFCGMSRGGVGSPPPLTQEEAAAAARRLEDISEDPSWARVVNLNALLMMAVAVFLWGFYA
# Test: Sodium-dependent glucose transport (14C-AMG uptake) assay in CHO cells stably expressing hSGLT2
# Type: cell-based
# Settings: CHO cells expressing hSGLT2, 14C-AMG uptake, 37° C. for 2 h; single determinations; read-out: hSGLT2 Inhibitory Activity IC50
# From the text: Cloning and Cell Line Construction for Human SGLT2
# Human SGLT2 (hSGLT2) gene was amplified by PCR from cDNA-Human Adult Normal Tissue Kidney (Invitrogen). The hSGLT2 sequence was cloned into pcDNA3.1(+) for mammalian expression and were stably transfected into chinese hamster ovary (CHO) cells. SGLT2-expressing clones were selected based on resistance to G418 antibiotic (Geneticin) and activity in the ^14C-α-methyl-D-glucopyranoside (^14C-AMG) uptake assay.
# Inhibitory Effects on Human SGLT2 Activities
# For sodium-dependent glucose transport assay, cells expressing hSGLT2 were seeded into a 96-well culture plate at a density of 5×10^4 cells/well in RPMI medium 1640 containing 10% fetal bovine serum. The cells were used 1 day after plating. They were incubated in pretreatment buffer (10 mM HEPES, 5 mM Tris, 140 mM choline chloride, 2 mM KCl, 1 mM CaCl2, and 1 mM MgCl2, pH 7.4) at 37° C. for 10 min. They were then incubated in uptake buffer (10 mM HEPES, 5 mM Tris, 140 mM NaCl, 2 mM KCl, 1 mM CaCl2, 1 mM MgCl2, and 1 mM ^14C-nonlabeled AMG, pH 7.4) containing ^14C-labeled (8 μM) and inhibitor or dimethylsulfoxide (DMSO) vehicle at 37° C. for 2 h. Cells were washed twice with washing buffer (pretreatment buffer containing 10 mM AMG at room temperature) and then the radioactivity was measured using a liquid scintillation counter. IC50 was determined by nonlinear regression analysis using GraphPad PRISM [Katsuno, K. et al. J. Pharmacol. Exp. Ther. 2007, 320, 323-330; Han, S. et al. Deabetes, 2008, 57, 1723-1729].
row,IC50 [nM],Compound
1,5.55,"COCCOc1cc(Cl)c(Cc2ncc(-c3ccco3)s2)cc1[C@@H]1O[C@H](CO)[C@@H](O)[C@H](O)[C@H]1O [Example 117, (2S,3R,4R,5S,6R)-2-(4-Chloro-5-((5-(furan-2-yl)thiazol-2-yl)methyl)-2-(2-methoxyethoxy)phenyl)-6-(hydroxymethyl)-tetrahydro-2H-pyran-3,4,5-triol]"
2,30.6,"OC[C@H]1O[C@@H](c2cc(Cc3ncc(-c4ccccc4)s3)c(O)c3ccccc23)[C@H](O)[C@@H](O)[C@@H]1O [Example 125, (2S,3R,4R,5S,6R)-2-(4-Hydroxy-3-((5-phenylthiazol-2-yl)methyl)naphthalen-1-yl)-6-(hydroxymethyl)-tetrahydro-2H-pyran-3,4,5-triol]"
3,123,"CCCCc1cnc(Cc2cn([C@@H]3O[C@H](CO)[C@@H](O)[C@H](O)[C@H]3O)c3ccccc23)s1 [Example 135, (2R,3R,4S,5S,6R)-2-(3((5-Butylthiazol-2-yl)methyl)-1H-indol-1-yl)-6-(hydroxymethyl)tetrahydro-2H-pyran-3,4,5-triol]"
4,36.7,"N#Cc1ccc([C@@H]2O[C@H](CO)[C@@H](O)[C@H](O)[C@H]2O)cc1Cc1ncc(-c2ccco2)s1 [Example 108, 2-((5-(Furan-2-yl)thiazol-2-yl)methyl)-4-((2S,3R,4R,5S,6R)-3,4,5-trihydroxy-6-(hydroxymethyl)-tetrahydro-2H-pyran-2-yl)benzonitrile]"
5,1.51,"OCCOc1cc(Cl)c(Cc2ncc(-c3ccco3)s2)cc1[C@@H]1O[C@H](CO)[C@@H](O)[C@H](O)[C@H]1O [Example 121, (2S,3R,4R,5S,6R)-2-(4-Chloro-5-((5-(furan-2-yl)thiazol-2-yl)methyl)-2-(2-hydroxyethoxy)phenyl)-6-(hydroxymethyl)tetrahydro-2H-pyran-3,4,5-triol]"
6,7.01,"C[C@H]1O[C@@H](c2ccc(Cl)c(Cc3ncc(-c4ccco4)s3)c2)[C@H](O)[C@@H](O)[C@@H]1O [Example 146, (2S,3R,4S,5S,6R)-2-(4-Chloro-3-((5-(furan-2-yl)thiazol-2-yl)methyl)phenyl)-6-methyl-tetrahydro-2H-pyran-3,4,5-triol]"
7,131,"OC[C@H]1O[C@@H](c2cc(Cc3ncc(-c4ccco4)s3)c(Cl)cc2OCCn2cncn2)[C@H](O)[C@@H](O)[C@@H]1O [Example 122, (2S,3R,4R,5S,6R)-2-(2-(2-(1H-1,2,4-Triazol-1-yl)ethoxy)-4-chloro-5-((5-(furan-2-yl)thiazol-2-yl)methyl)phenyl)-6-(hydroxymethyl)-tetrahydro-2H-pyran-3,4,5-triol]"
8,4.22,"C=CCOc1cc(Cl)c(Cc2ncc(-c3ccc(F)cc3)s2)cc1[C@@H]1O[C@H](CO)[C@@H](O)[C@H](O)[C@H]1O [Example 88, (2S,3R,4R,5S,6R)-2-(2-(Allyloxy)-4-chloro-5-((5-(4-fluorophenyl)thiazol-2-yl)methyl)phenyl)-6-(hydroxymethyl)tetrahydro-2H-pyran-3,4,5-triol]"
9,2.94,"COc1c(Cc2ncc(-c3ccco3)s2)cc([C@@H]2O[C@H](CO)[C@@H](O)[C@H](O)[C@H]2O)c2ccccc12 [Example 95, (2S,3R,4R,5S,6R)-2-(3-((5-(Furan-2-yl)thiazol-2-yl)methyl)-4-methoxynaphthalen-1-yl)-6-(hydroxymethyl)-tetrahydro-2H-pyran-3,4,5-triol]"
10,45.4,"OC[C@H]1O[C@@H](c2ccc(Cl)c(Cc3cnc(-c4cocn4)s3)c2)[C@H](O)[C@@H](O)[C@@H]1O [Example 191, (2S,3R,4R,5S,6R)-2-(4-Chloro-3-((2-(oxazol-4-yl)thiazol-5-yl)methyl)phenyl)-6-(hydroxymethyl)tetrahydro-2H-pyran-3,4,5-triol]"

# More lines, now with the values behind:
row,Compound,IC50 [nM]
1,"Cc1ccc([C@@H]2O[C@H](CO)[C@@H](O)[C@H](O)[C@H]2O)cc1Cc1ncc(-c2cccs2)s1 [Example 32, (2R,3S,4R,5R,6S)-2-(Hydroxymethyl)-6-(4-methyl-3-((5-(thiophen-2-yl)thiazol-2-yl)methyl)phenyl)tetrahydro-2H-pyran-3,4,5-triol]",3.8
2,"COc1cc(Cl)c(Cc2ncc(-c3ccoc3)s2)cc1[C@@H]1O[C@H](CO)[C@@H](O)[C@H](O)[C@H]1O [Example 70, (2S,3R,4R,5S,6R)-2-(4-Chloro-5-((5-(furan-3-yl)thiazol-2-yl)methyl)-2-methoxyphenyl)-6-(hydroxymethyl)tetrahydro-2H-pyran-3,4,5-triol]",7.37
3,"OC[C@H]1O[C@@H](c2ccc(F)c(Cc3ncc(-c4ccc(F)cc4)s3)c2)[C@H](O)[C@@H](O)[C@@H]1O [Example 45, (2S,3R,4R,5S,6R)-2-(4-Fluoro-3-((5-(4-fluorophenyl)thiazol-2-yl)methyl)phenyl)-6-(hydroxymethyl)tetrahydro-2H-pyran-3,4,5-triol]",47.7
4,"Cc1ccc([C@@H]2O[C@H](CO)[C@@H](O)[C@H](O)[C@H]2O)cc1Cc1ncc(-c2ccc(F)cc2)s1 [Example 37, (2S,3R,4R,5S,6R)-2-(3-((5-(4-Fluorophenyl)thiazol-2-yl)methyl)-4-methylphenyl)-6-(hydroxymethyl)tetrahydro-2H-pyran-3,4,5-triol]",9.8
5,"COc1cc(Cl)c(Cc2ncc(C3CCCC3)s2)cc1[C@@H]1O[C@H](CO)[C@@H](O)[C@H](O)[C@H]1O [Example 76, (2S,3R,4R,5S,6R)-2-(4-Chloro-5-((5-cyclopentylthiazol-2-yl)methyl)-2-methoxyphenyl)-6-(hydroxymethyl)tetrahydro-2H-pyran-3,4,5-triol]",9.35
6,"OC[C@H]1O[C@@H](c2ccc(C(F)(F)F)c(Cc3ncc(-c4ccco4)s3)c2)[C@H](O)[C@@H](O)[C@@H]1O [Example 4, (2S,3R,4R,5S,6R)-2-(3-((5-(Furan-2-yl)thiazol-2-yl)methyl)-4-(trifluoromethyl)phenyl)-6-(hydroxymethyl)-tetrahydro-2H-pyran-3,4,5-triol]",9.73
7,"OC[C@H]1O[C@@H](c2ccc(Cl)c(Cc3ncc(-c4ccc(F)cc4)s3)c2)[C@H](O)[C@@H](O)[C@@H]1O [Example 11, (2S,3R,4R,5S,6R)-2-(4-Chloro-3-((5-(4-fluorophenyl)thiazol-2-yl)methyl)phenyl)-6-(hydroxymethyl)-tetrahydro-2H-pyran-3,4,5-triol]",21.2
8,"OC[C@H]1O[C@@H](c2ccc(Cl)c(Cc3ncc(-c4ccccn4)s3)c2)[C@H](O)[C@@H](O)[C@@H]1O [Example 10, (2S,3R,4R,5S,6R)-2-(4-Chloro-3-((5-(pyridin-2-yl)thiazol-2-yl)methyl)phenyl)-6-(hydroxymethyl)-tetrahydro-2H-pyran-3,4,5-triol]",6.86
9,"CCCc1cnc(Cc2cc([C@@H]3O[C@H](CO)[C@@H](O)[C@H](O)[C@H]3O)c(Cl)cc2Cl)s1 [Example 65, (2S,3R,4R,5S,6R)-2-(2,4-Dichloro-5-((5-propylthiazol-2-yl)methyl)phenyl)-6-(hydroxymethyl)tetrahydro-2H-pyran-3,4,5-triol]",43.7
10,"(2S,3R,4R,5S,6R)-2-(4-Chloro-2-ethoxy-5-((5-(furan-3-yl)thiazol-2-yl)methyl)phenyl)-6-(hydroxymethyl)tetrahydro-2H-pyran-3,4,5-triol [Example 31]",3.66
11,"OC[C@H]1O[C@@H](c2ccc(Cl)c(Cc3ncc(-c4nccs4)s3)c2)[C@H](O)[C@@H](O)[C@@H]1O [Example 9, (2S,3R,4R,5S,6R)-2-(3-(2,5′-Bithiazol-2′-ylmethyl)-4-chlorophenyl)-6-(hydroxymethyl)-tetrahydro-2H-pyran-3,4,5-triol]",7.48
12,"OC[C@H]1O[C@@H](c2ccc(Cl)c(Cc3ncc(-c4ccoc4)s3)c2)[C@H](O)[C@@H](O)[C@@H]1O [Example 6, (2S,3R,4R,5S,6R)-2-(4-Chloro-3-((5-(furan-3-yl)thiazol-2-yl)methyl)phenyl)-6-(hydroxymethyl)-tetrahydro-2H-pyran-3,4,5-triol]",6.25
